{"source": "paper PMC9030254", "about": "“Target Hopping from Protein Kinases to PXR: Identification of Small-Molecule Protein Kinase Inhibitors as Selective Modulators of Pregnane X Receptor from TüKIC Library” (Cells, 2022)", "assay_in_all_cases": "Kinase profiling", "assay_type_in_all_cases": "biochemical", "key": {"COT": {"target": "T1, COT (Homo sapiens, UniProt P41279)", "T1 construct": "purchased ProQinase (Freiburg, Germany)", "T1 sequence (P41279 whole entry)": "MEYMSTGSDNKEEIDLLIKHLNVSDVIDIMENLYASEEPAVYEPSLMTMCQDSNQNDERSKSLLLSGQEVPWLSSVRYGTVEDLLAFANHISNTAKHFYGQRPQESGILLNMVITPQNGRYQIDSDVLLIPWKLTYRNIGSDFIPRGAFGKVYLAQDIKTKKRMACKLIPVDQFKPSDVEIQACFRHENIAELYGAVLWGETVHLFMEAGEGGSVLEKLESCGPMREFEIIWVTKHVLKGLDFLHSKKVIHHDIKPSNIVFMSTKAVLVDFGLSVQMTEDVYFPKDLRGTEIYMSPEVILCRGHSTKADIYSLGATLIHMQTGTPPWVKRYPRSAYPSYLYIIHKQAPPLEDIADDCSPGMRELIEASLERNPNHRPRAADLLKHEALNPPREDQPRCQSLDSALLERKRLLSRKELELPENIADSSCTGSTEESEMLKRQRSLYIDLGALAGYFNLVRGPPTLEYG", "experimental": "(§1) The analysis was performed by ProQinase (Freiburg, Germany)."}, "IKKalpha": {"target": "T2, IKKalpha (Homo sapiens, UniProt O15111)", "T2 construct": "purchased ProQinase (Freiburg, Germany)", "T2 sequence (O15111 1-745)": "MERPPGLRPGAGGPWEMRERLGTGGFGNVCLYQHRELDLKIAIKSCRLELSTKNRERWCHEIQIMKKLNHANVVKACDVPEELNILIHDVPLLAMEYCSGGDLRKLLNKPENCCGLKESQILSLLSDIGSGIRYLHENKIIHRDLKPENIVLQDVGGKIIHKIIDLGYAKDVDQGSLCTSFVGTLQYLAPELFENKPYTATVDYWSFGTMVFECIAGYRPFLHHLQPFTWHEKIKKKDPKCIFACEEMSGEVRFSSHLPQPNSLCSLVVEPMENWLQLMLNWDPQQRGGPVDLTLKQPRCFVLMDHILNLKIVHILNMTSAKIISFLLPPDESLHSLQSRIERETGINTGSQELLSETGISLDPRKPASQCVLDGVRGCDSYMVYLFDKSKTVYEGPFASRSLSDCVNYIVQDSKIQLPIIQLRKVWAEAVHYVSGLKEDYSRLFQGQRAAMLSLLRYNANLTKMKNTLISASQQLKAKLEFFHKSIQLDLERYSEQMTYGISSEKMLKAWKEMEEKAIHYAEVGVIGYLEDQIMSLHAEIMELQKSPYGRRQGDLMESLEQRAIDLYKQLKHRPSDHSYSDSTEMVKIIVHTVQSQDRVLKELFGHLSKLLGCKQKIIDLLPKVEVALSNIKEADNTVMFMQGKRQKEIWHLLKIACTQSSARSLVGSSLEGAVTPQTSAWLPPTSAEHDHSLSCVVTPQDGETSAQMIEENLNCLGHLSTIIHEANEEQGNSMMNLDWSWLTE", "experimental": "as §1"}, "MEKK3": {"target": "T3, MEKK3 (Homo sapiens, UniProt Q99759)", "T3 construct": "purchased ProQinase (Freiburg, Germany)", "T3 sequence (Q99759 1-626)": "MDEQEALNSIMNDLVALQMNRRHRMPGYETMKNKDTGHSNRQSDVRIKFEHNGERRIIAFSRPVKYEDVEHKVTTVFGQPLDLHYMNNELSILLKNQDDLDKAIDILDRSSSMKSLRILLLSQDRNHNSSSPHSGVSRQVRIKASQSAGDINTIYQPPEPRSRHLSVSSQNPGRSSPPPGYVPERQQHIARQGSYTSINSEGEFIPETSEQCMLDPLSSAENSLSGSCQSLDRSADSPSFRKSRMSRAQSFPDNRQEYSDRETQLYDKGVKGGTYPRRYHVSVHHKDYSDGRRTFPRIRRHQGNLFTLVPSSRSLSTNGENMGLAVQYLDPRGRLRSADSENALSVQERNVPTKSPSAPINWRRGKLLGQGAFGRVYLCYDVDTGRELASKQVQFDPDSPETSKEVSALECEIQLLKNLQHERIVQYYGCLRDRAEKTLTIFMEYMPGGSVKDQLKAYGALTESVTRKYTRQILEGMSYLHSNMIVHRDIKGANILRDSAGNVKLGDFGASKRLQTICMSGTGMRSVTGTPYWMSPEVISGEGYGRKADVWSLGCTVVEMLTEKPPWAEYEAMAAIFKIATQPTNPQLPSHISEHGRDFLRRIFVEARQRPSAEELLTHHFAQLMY", "experimental": "as §1"}, "NEK1": {"target": "T4, NEK1 (Homo sapiens, UniProt Q96PY6)", "T4 construct": "purchased ProQinase (Freiburg, Germany)", "T4 sequence (Q96PY6 1-1258)": "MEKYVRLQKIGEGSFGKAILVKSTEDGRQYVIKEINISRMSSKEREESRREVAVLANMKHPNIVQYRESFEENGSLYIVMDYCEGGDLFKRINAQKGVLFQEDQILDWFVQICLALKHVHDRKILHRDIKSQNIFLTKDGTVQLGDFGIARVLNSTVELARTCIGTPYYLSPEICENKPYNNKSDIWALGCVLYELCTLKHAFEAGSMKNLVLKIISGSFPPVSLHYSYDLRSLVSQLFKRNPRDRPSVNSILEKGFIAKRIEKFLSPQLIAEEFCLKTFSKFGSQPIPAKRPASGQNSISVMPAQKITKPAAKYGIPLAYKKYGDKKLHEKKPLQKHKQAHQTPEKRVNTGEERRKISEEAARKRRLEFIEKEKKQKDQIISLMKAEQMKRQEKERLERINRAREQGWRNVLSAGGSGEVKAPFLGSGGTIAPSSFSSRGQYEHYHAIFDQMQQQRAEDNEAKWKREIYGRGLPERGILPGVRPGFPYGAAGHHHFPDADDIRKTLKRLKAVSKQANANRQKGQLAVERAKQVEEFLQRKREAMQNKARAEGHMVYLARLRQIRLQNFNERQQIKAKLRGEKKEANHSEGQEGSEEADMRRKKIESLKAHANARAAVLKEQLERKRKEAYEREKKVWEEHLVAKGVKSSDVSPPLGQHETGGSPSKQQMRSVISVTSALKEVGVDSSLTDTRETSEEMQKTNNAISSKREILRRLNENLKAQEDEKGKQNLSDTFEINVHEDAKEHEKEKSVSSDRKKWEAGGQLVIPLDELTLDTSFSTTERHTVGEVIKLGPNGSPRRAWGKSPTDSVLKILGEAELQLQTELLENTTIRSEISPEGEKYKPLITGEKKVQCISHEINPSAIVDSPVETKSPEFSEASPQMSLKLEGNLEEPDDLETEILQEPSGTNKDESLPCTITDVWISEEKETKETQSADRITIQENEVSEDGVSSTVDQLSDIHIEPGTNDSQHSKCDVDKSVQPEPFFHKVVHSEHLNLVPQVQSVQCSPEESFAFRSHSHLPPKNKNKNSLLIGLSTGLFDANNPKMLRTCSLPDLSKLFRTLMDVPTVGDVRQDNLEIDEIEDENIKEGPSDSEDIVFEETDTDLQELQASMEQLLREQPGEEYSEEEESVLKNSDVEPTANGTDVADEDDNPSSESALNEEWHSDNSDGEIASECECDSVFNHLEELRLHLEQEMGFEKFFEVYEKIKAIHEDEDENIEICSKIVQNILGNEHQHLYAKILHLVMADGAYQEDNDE", "experimental": "as §1"}, "STK25": {"target": "T5, STK25 (Homo sapiens, UniProt O00506)", "T5 construct": "purchased ProQinase (Freiburg, Germany)", "T5 sequence (O00506 whole entry)": "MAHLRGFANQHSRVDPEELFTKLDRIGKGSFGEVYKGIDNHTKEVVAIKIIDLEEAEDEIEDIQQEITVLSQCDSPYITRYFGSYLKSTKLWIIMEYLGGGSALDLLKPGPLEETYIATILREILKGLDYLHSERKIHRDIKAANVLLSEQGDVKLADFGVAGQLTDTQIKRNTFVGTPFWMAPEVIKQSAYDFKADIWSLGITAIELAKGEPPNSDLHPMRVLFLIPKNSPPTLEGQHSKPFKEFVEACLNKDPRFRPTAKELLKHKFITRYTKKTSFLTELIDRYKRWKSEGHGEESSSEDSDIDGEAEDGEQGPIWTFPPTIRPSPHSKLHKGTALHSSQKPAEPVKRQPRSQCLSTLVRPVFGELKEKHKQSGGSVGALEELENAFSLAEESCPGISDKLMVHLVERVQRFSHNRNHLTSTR", "experimental": "as §1"}}}
{"smiles": "O=C(Cc1ccccc1)Nc1ccc(F)c(Nc2ccc3c(c2)CCCCC3=O)c1", "note": "[Compound 100]", "values": [{"measurement": "Residual activity", "setting": "COT; 1.0E-05 M", "value": "106 % of control"}, {"measurement": "Residual activity", "setting": "COT; 1.0E-06 M", "value": "93 % of control"}, {"measurement": "Residual activity", "setting": "IKKalpha; 1.0E-05 M", "value": "102 % of control"}, {"measurement": "Residual activity", "setting": "IKKalpha; 1.0E-06 M", "value": "102 % of control"}, {"measurement": "Residual activity", "setting": "MEKK3; 1.0E-05 M", "value": "104 % of control"}, {"measurement": "Residual activity", "setting": "MEKK3; 1.0E-06 M", "value": "95 % of control"}, {"measurement": "Residual activity", "setting": "NEK1; 1.0E-05 M", "value": "96 % of control"}, {"measurement": "Residual activity", "setting": "NEK1; 1.0E-06 M", "value": "98 % of control"}, {"measurement": "Residual activity", "setting": "STK25; 1.0E-05 M", "value": "89 % of control"}, {"measurement": "Residual activity", "setting": "STK25; 1.0E-06 M", "value": "100 % of control"}]}
{"smiles": "O=C(Nc1ccc(F)c(Nc2ccc3c(c2)CCCCC3=O)c1)c1cccc(F)c1", "note": "[Compound 109]", "values": [{"measurement": "Residual activity", "setting": "COT; 1.0E-05 M", "value": "97 % of control"}, {"measurement": "Residual activity", "setting": "COT; 1.0E-06 M", "value": "95 % of control"}, {"measurement": "Residual activity", "setting": "IKKalpha; 1.0E-05 M", "value": "93 % of control"}, {"measurement": "Residual activity", "setting": "IKKalpha; 1.0E-06 M", "value": "104 % of control"}, {"measurement": "Residual activity", "setting": "MEKK3; 1.0E-05 M", "value": "102 % of control"}, {"measurement": "Residual activity", "setting": "MEKK3; 1.0E-06 M", "value": "94 % of control"}, {"measurement": "Residual activity", "setting": "NEK1; 1.0E-05 M", "value": "93 % of control"}, {"measurement": "Residual activity", "setting": "NEK1; 1.0E-06 M", "value": "96 % of control"}, {"measurement": "Residual activity", "setting": "STK25; 1.0E-05 M", "value": "91 % of control"}, {"measurement": "Residual activity", "setting": "STK25; 1.0E-06 M", "value": "90 % of control"}]}
